Read-outs that look alike come from different tables or passages of the source.
Columns and labels:
[1] = tested on: Spodoptera litura; test: Test against tobacco cutworm (Spodoptera litura) larvae, leaf dip; format: in vivo; conditions: active compound concentration of 100 ppm, third instar larvae on sweet potato leaves, after 7 days; for pest or weed control at 100 ppm: foliar, 168 h, read-out: insecticidal activity
Experimental: (§1) Unless not mentioned otherwise, the test solutions were prepared as follows:
(§2) Containing as solvent: Dimethylformamide, 3 parts by weight; and as emulsifier: Polyoxyethylene alkyl phenyl ether, 1 part by weight
(§3) To prepare the test solution, 1 part by weight of an active compound is mixed with the above-mentioned amount of solvent containing the above-mentioned amount of emulsifier, and the mixture is diluted with water to the desired concentration.
Leaves of sweet potato were immersed in the test solution at the appropriate concentration, and the leaves were dried in air. The leaves were then placed in a petri dish having a diameter of 9 cm, and ten Spodoptera litura at third instar larvae were released therein. The petri dishes were placed in a temperature-controlled chamber at 25° C. After 2 days and 4 days more sweet potato leaves were added. After 7 days, the number of dead larvae was counted to calculate the insecticidal activity. An insecticidal activity of 100% means that all larvae were killed, whereas an insecticidal activity of 0% means that no larva was killed. In the current test, the results of two petri dishes for each treatment were averaged.

[2] = tested on: Aulacophora femoralis; test: Test against cucurbit leaf beetle (Aulacophora femoralis), leaf dip; format: in vivo; conditions: for pest or weed control at 500 ppm: Aulacophora, foliar, 168 h, read-out: insecticidal activity
Experimental: as §1, §2, §3
Leaves of cucumber were immersed in the test solution at the appropriate concentration, and the leaves were dried in air. The leaves were then put in a plastic cup containing sterilized black soil and five Aulacophora femoralis at second instar larvae were released in the cup. The cups were placed in a temperature-controlled chamber at 25° C. After 7 days, the number of dead larvae was counted, and thus the insecticidal activity was calculated. An insecticidal activity of 100% means that all larvae were killed, whereas an insecticidal activity of 0% means that no larva was killed.

[3] = active compound concentration of 500 ppm, second instar larvae on cucumber leaves, after 7 days

CCCc1cc(C(F)(C(F)(F)F)C(F)(F)C(F)(F)F)cc(Br)c1NC(=O)c1ccc2nc(C#N)ccc2c1 (stereo not shown) [2-164]
insecticidal activity [1]: 100%
insecticidal activity [2, 3]: 100%

O=C(Nc1c(Cl)cc(C(F)(C(F)(F)F)C(F)(F)F)cc1OC(F)F)c1ccc2ncccc2c1 [Compound No. 2-229, N-[2-chloro-(1,1,1,2,3,3,3-heptafluoropropan-2-yl)-6-(difluoromethoxy)phenyl]quinoline-6-carboxamide]
pest or weed control at 500 ppm [2, 3]: 100%

O=C(Nc1c(Br)cc(C(F)(C(F)(F)F)C(F)(F)F)cc1OC(F)F)c1ccc2ncccc2c1 [Compound No. 2-152, N-[2-bromo-(1,1,1,2,3,3,3-heptafluoropropan-2-yl)-6-(difluoromethoxy)phenyl]quinoline-6-carboxamide]
pest or weed control at 100 ppm [1]: 100%
pest or weed control at 500 ppm ([2]; in Cucumis sativus): 100%

O=C(Nc1c(I)cc(C(F)(C(F)(F)F)C(F)(F)Br)cc1I)c1ccc2ncccc2c1 (stereo not shown) [2-198]
insecticidal activity [1]: 100%

O=C(Nc1c(I)cc(C(F)(C(F)(F)F)C(F)(F)C(F)(F)F)cc1OC(F)F)c1ccc2c(ccc[n+]2[O-])c1 (stereo not shown) [Compound No. 2-175, N-[2-(difluoromethoxy)-6-iodo-4-(1,1,1,2,3,3,4,4,4-nonafluorobutan-2-yl)phenyl]quinoline-6-carboxamide N-oxide]
pest or weed control at 100 ppm [1]: 100%
pest or weed control at 500 ppm [2, 3]: 100%

CCCc1cc(C(F)(C(F)(F)F)C(F)(F)C(F)(F)F)cc(Br)c1NC(=O)c1ccc2ncccc2c1 (stereo not shown) [2-162]
insecticidal activity [1]: 100%
insecticidal activity [2, 3]: 100%

N#Cc1ccc2cc(C(=O)Nc3c(Br)cc(SC(F)(F)F)cc3Br)ccc2n1 [2-140]
insecticidal activity [1]: 100%
insecticidal activity [2, 3]: 100%

CCc1cc(C2(F)C(F)(F)C(F)(F)C(F)(F)C(F)(F)C2(F)F)cc(C)c1NC(=O)c1ccc2ncccc2c1 [2-128]
insecticidal activity [1]: 100%

CCc1cc(C(F)(C(F)(F)F)C(F)(F)Br)cc(C)c1NC(=O)c1ccc2c(ccc[n+]2[O-])c1 (stereo not shown) [2-193]
insecticidal activity [2, 3]: 100%

Cc1cc(C(F)(C(F)(F)F)C(F)(F)F)cc(C)c1NC(=O)c1ccc2nc(Cl)ccc2c1 [Compound No. 2-17, 2-chloro-N-[4-(1,1,1,2,3,3,3-heptafluoropropan-2-yl)-2,6-dimethylphenyl]quinoline-6-carboxamide]
pest or weed control at 100 ppm [1]: 100%
pest or weed control at 500 ppm [2, 3]: 100%

CCc1cc(C(Oc2ccc(Cl)cc2)(C(F)(F)F)C(F)(F)F)cc(C)c1NC(=O)c1ccc2ncccc2c1 [2-78]
insecticidal activity [1]: 100%
insecticidal activity [2, 3]: 100%

Cc1cc(C(F)(C(F)(F)F)C(F)(F)F)cc(C)c1NC(=O)c1ccc2c(ccc(C#N)[n+]2[O-])c1 [Compound No. 2-21]
insecticidal activity [1]: 100%
insecticidal activity [2, 3]: 100%

CCc1cc(C(F)(C(F)(F)F)C(F)(F)C(F)(F)F)cc(C)c1NC(=O)c1ccc(N=c2ssnc2Cl)c(Br)c1 (stereo not shown) [5-4]
insecticidal activity [1]: 100%

O=C(Nc1c(I)cc(C(F)(C(F)(F)F)C(F)(F)C(F)(F)F)cc1I)c1ccc2ncccc2c1 (stereo not shown) [2-111]
insecticidal activity [1]: 100%

CCOC(c1cc(C)c(NC(=O)c2ccc3nc(C#N)ccc3c2)c(CC)c1)(C(F)(F)F)C(F)(F)F [2-74]
insecticidal activity [1]: 100%
insecticidal activity [2, 3]: 100%

N#Cc1ccc2cc(C(=O)Nc3c(I)cc(C(F)(C(F)(F)F)C(F)(F)Br)cc3I)ccc2n1 (stereo not shown) [2-200]
insecticidal activity [1]: 100%
insecticidal activity [2, 3]: 100%

N#Cc1ccc2cc(C(=O)Nc3c(I)cc(C(F)(C(F)(F)F)C(F)(F)C(F)(F)F)cc3I)ccc2n1 (stereo not shown) [2-113]
insecticidal activity [1]: 100%
insecticidal activity [2, 3]: 100%

Cc1cc(C(F)(C(F)(F)F)C(F)(F)F)cc(C(C)C)c1NC(=O)c1ccc2c(ccc[n+]2[O-])c1 [2-36]
insecticidal activity [2, 3]: 100%

CCc1cc(C(F)(C(F)(F)F)C(F)(F)F)cc(C)c1NC(=O)c1ccc2cc(C#N)ccc2c1 [Compound No. 1-4, 6-cyano-N-[2-ethyl-4-(1,1,1,2,3,3,3-heptafluoropropan-2-yl)-6-methylphenyl]-2-naphthamide]
pest or weed control at 100 ppm [1]: 100%

N#Cc1ccc2cc(C(=O)Nc3c(Br)cc(OC(F)(F)F)cc3Br)ccc2n1 [2-139]
insecticidal activity [2, 3]: 100%

CC(C)c1cc(C(F)(C(F)(F)F)C(F)(F)F)cc(C(C)C)c1NC(=O)c1ccc2c(ccc[n+]2[O-])c1 [2-57]
insecticidal activity [2, 3]: 100%

CCCc1cc(C(F)(C(F)(F)F)C(F)(F)C(F)(F)F)cc(I)c1NC(=O)c1ccc2ncccc2c1 (stereo not shown) [2-102]
insecticidal activity [1]: 100%

O=C(Nc1c(I)cc(C(F)(C(F)(F)F)C(F)(F)C(F)(F)F)cc1SC(F)(F)F)c1ccc2ncccc2c1 (stereo not shown) [2-186]
insecticidal activity [1]: 100%

Cc1cc(C(F)(C(F)(F)F)C(F)(F)F)cc(C)c1NC(=O)c1ccc2nc(Br)ccc2c1 [2-18]
insecticidal activity [2, 3]: 100%

Cc1cc(C(F)(C(F)(F)F)C(F)(F)F)cc(C(C)C)c1NC(=O)c1ccc2nc(C#N)ccc2c1 [2-37]
insecticidal activity [1]: 100%
insecticidal activity [2, 3]: 100%

CCc1cc(C2(F)C(F)(F)C(F)(F)C(F)(F)C(F)(F)C2(F)F)cc(C)c1NC(=O)c1ccc2c(ccc[n+]2[O-])c1 [2-129]
insecticidal activity [1]: 100%

CCCc1cc(C(F)(C(F)(F)F)C(F)(F)C(F)(F)F)cc(I)c1NC(=O)c1ccc2nc(C#N)ccc2c1 (stereo not shown) [2-104]
insecticidal activity [1]: 100%
insecticidal activity [2, 3]: 100%

N#Cc1ccc2cc(C(=O)Nc3c(Br)cc(C(F)(C(F)(F)F)C(F)(F)C(F)(F)F)cc3SC(F)(F)F)ccc2n1 (stereo not shown) [2-185]
insecticidal activity [1]: 100%
insecticidal activity [2, 3]: 100%

N#Cc1ccc2cc(C(=O)Nc3c(I)cc(C(F)(C(F)(F)F)C(F)(F)C(F)(F)F)cc3SC(F)(F)F)ccc2n1 (stereo not shown) [2-188]
insecticidal activity [1]: 100%
insecticidal activity [2, 3]: 100%

N#Cc1ccc2cc(C(=O)Nc3c(Br)cc(C(F)(C(F)(F)F)C(F)(F)C(F)(F)F)cc3Br)ccc2[n+]1[O-] (stereo not shown) [2-270]
insecticidal activity [1]: 100%

O=C(Nc1c(Br)cc(C(F)(C(F)(F)F)C(F)(F)Br)cc1Br)c1ccc2ncccc2c1 (stereo not shown) [2-195]
insecticidal activity [1]: 100%
insecticidal activity [2, 3]: 100%

CCCc1cc(C(F)(C(F)(F)F)C(F)(F)C(F)(F)F)cc(I)c1NC(=O)c1ccc2c(ccc[n+]2[O-])c1 (stereo not shown) [2-103]
insecticidal activity [1]: 100%

Cc1cc(C(F)(C(F)(F)F)C(F)(F)F)cc(C)c1NC(=O)c1ccc2nccc(Br)c2c1 [2-13]
insecticidal activity [1]: 100%
insecticidal activity [2, 3]: 100%

N#Cc1ccc2cc(C(=O)Nc3c(Cl)cc(C(F)(C(F)(F)F)C(F)(F)F)cc3Cl)ccc2n1 [2-61]
insecticidal activity [1]: 100%
insecticidal activity [2, 3]: 100%

N#Cc1ccc2cc(C(=O)Nc3c(I)cc(C(F)(C(F)(F)F)C(F)(F)F)cc3SC(F)(F)F)ccc2n1 [2-161]
insecticidal activity [1]: 100%

O=C(Nc1c(I)cc(C(F)(C(F)(F)F)C(F)(F)C(F)(F)F)cc1I)c1ccc2c(ccc[n+]2[O-])c1 (stereo not shown) [2-112]
insecticidal activity [2, 3]: 100%

CC(C)c1cc(C(F)(C(F)(F)F)C(F)(F)C(F)(F)F)cc(I)c1NC(=O)c1ccc2nc(C#N)ccc2c1 (stereo not shown) [2-167]
insecticidal activity [1]: 100%
insecticidal activity [2, 3]: 100%

O=C(Nc1c(Cl)cc(C(F)(C(F)(F)F)C(F)(F)F)cc1Cl)c1ccc2ncccc2c1 [2-59]
insecticidal activity [2, 3]: 100%

CCc1cc(C(F)(C(F)(F)F)C(F)(F)C(F)(F)F)cc(C)c1NC(=O)c1ccc2c(ccc[n+]2[O-])c1 (stereo not shown) [2-89]
insecticidal activity [2, 3]: 100%
